In DBAASP:
In brackets after ≈: the same amount, converted by molar mass.

What was measured:
Experiment in all cases: ≥ marks a high value that may be exact or a test limit, other limits are often not marked, values filed in µg/mL are converted to µM
Enterococcus faecium = test system: Enterococcus faecium
[1] = test system: Escherichia coli KCTC 1682
[2] = test system: Staphylococcus aureus KCTC 1621
[3] = test system: Staphylococcus epidermidis KCTC 1917
[4] = test system: Bacillus subtilis KCTC 3068
[5] = test system: Salmonella typhimurium KCTC 1926
Enterococcus faecium VR = test system: Enterococcus faecium VR
Enterococcus faecalis VR = test system: Enterococcus faecalis VR
[6] = test system: Pseudomonas aeruginosa KCTC 1637
Enterococcus faecalis = test system: Enterococcus faecalis
Staphylococcus aureus MR = test system: Staphylococcus aureus MR
[7] = test system: Enterococcus faecalis ATCC 29212
[8] = test system: Salmonella enterica subsp. enterica serovar Typhimurium ATCC 14028
[9] = test system: Escherichia coli ATCC 25922
[10] = test system: Staphylococcus epidermidis ATCC 12228
[11] = test system: Escherichia coli DH5alpha
Escherichia coli UB1005 = test system: Escherichia coli UB1005
[12] = test system: Pseudomonas aeruginosa PAO1
[13] = test system: Pseudomonas aeruginosa ATCC 27853
[14] = test system: Bacillus subtilis CMCC 63501
[15] = test system: Staphylococcus aureus ATCC 29213
Candida parapsilosis = test system: Candida parapsilosis
[16] = test system: Salmonella typhimurium ATCC 7731
Escherichia coli K-12 = test system: Escherichia coli K-12
[17] = test system: Escherichia coli ATCC 10536
[18] = test system: Bacillus subtilis ATCC 6633
[19] = test system: Staphylococcus aureus ATCC 9144
[20] = test system: Staphylococcus aureus C623
[21] = test system: Pseudomonas aeruginosa H103
[22] = test system: Enterococcus faecium mic80
[23] = test system: Pseudomonas aeruginosa 213
[24] = test system: Escherichia coli ESBL 63103
[25] = test system: Pseudomonas aeruginosa LES400
Candida albicans C627 = test system: Candida albicans C627
[26] = test system: Staphylococcus aureus ATCC 25923
[27] = test system: Pseudomonas aeruginosa ATCC BAA-427

Compound | MIC (Enterococcus faecium) [µM] | MIC [1] [µM] | MIC [2] [µM] | MIC [3] [µM] | MIC [4] [µM] | MIC [5] [µM] | MIC (Enterococcus faecium VR) [µM] | MIC (Enterococcus faecalis VR) [µM] | MIC [6] [µM] | MIC (Enterococcus faecalis) [µM] | MIC (Staphylococcus aureus MR) [µM] | MIC [26] [µM] | further results
CC[C@H](C)[C@H](NC(=O)[C@H](CS)NC(=O)[C@H](Cc1cnc[nH]1)NC(=O)[C@H](C)NC(=O)[C@H](C)N)C(=O)N[C@@H](CCC(N)=O)C(=O)N[C@@H](CC(C)C)C(=O)NCC(=O)N[C@@H](CCCCN)C(=O)N[C@@H](CCCN=C(N)N)C(N)=O [AAHCIQLGKR] | 30 (≈ 32.9 µg/mL) | 30 (≈ 32.9 µg/mL) | 30 (≈ 32.9 µg/mL) | 30 (≈ 32.9 µg/mL) | 30 (≈ 32.9 µg/mL) | 30 (≈ 32.9 µg/mL) | 30 (≈ 32.9 µg/mL) | 30 (≈ 32.9 µg/mL) | 30 (≈ 32.9 µg/mL) | 30 (≈ 32.9 µg/mL) | 30 (≈ 32.9 µg/mL) | – | –
CC[C@H](C)[C@H](NC(=O)[C@H](CCCN=C(N)N)NC(=O)[C@H](CCC(N)=O)NC(=O)[C@@H](NC(=O)[C@@H](NC(=O)[C@H](CCCN=C(N)N)NC(=O)[C@H](CCCCN)NC(=O)[C@@H](N)Cc1ccccc1)[C@@H](C)CC)C(C)C)C(=O)N[C@@H](CCCCN)C(=O)N[C@@H](CC(=O)O)C(=O)N[C@@H](Cc1ccccc1)C(=O)N[C@@H](CC(C)C)C(=O)N[C@@H](CCCN=C(N)N)C(N)=O [FKRIVQRIKDFLR] | – | 16 (≈ 27.5 µg/mL) | 16 (≈ 27.5 µg/mL) | 16 (≈ 27.5 µg/mL) | 4 (≈ 6.87 µg/mL) | 16 (≈ 27.5 µg/mL) | – | – | ≥ 32 | – | – | – | MIC [7]: 32 µM (≈ 55 µg/mL); MIC [8]: 32 µM (≈ 55 µg/mL); MIC [9]: 16 µM (≈ 27.5 µg/mL); MIC [10]: 8 µM (≈ 13.7 µg/mL); MIC [11]: ≥ 116 µM; MIC (Escherichia coli UB1005): 16 µM (≈ 27.5 µg/mL); MIC [12]: 16 µM (≈ 27.5 µg/mL); MIC [13]: 8 µM (≈ 13.7 µg/mL); MIC [14]: 16 µM (≈ 27.5 µg/mL); MIC [15]: 16 µM (≈ 27.5 µg/mL); MIC (Candida parapsilosis): ≥ 116 µM; MIC [16]: 16 µM (≈ 27.5 µg/mL); MIC (Escherichia coli K-12): ≥ 40 µM
CC[C@H](C)[C@H](NC(=O)CN)C(=O)NCC(=O)N[C@@H](C)C(=O)N[C@H](C(=O)N[C@@H](CC(C)C)C(=O)N[C@@H](CCCCN)C(=O)N[C@H](C(=O)N[C@@H](C)C(=O)N[C@H](C(=O)N[C@H](C(=O)NCC(=O)N[C@@H](CC(C)C)C(=O)N1CCC[C@H]1C(=O)N[C@@H](C)C(=O)N[C@@H](CC(C)C)C(=O)N[C@H](C(=O)N[C@@H](CO)C(=O)N[C@@H](Cc1c[nH]c2ccccc12)C(=O)N[C@H](C(=O)N[C@@H](CCCCN)C(=O)N[C@@H](CCCN=C(N)N)C(=O)N[C@@H](CCCCN)C(=O)N[C@@H](CCCN=C(N)N)C(=O)N[C@@H](CCC(N)=O)C(=O)N[C@@H](CCC(N)=O)C(N)=O)[C@@H](C)CC)[C@@H](C)CC)[C@@H](C)O)[C@@H](C)O)C(C)C)C(C)C [GIGAVLKVATTGLPALISWIKRKRQQ] | – | – | – | – | – | – | – | – | – | – | – | – | MIC [17]: 3.2 µM (≈ 8.97 µg/mL); MIC [18]: 2.4 µM (≈ 6.73 µg/mL); MIC [11]: 4.3 µM (≈ 12.1 µg/mL); MIC [19]: 3.6 µM (≈ 10.1 µg/mL)
CC(C)C[C@H](NC(=O)[C@H](CS)NC(=O)[C@H](Cc1cnc[nH]1)NC(=O)[C@H](C)NC(=O)[C@H](C)N)C(=O)N[C@@H](C)C(=O)N[C@@H](CCCCN)C(=O)N[C@@H](CCCN=C(N)N)C(=O)N[C@@H](CCCCN)C(=O)N[C@@H](CCCCN)C(N)=O [AAHCLAKRKK] | 30 | 30 | 30 | 30 | 30 | 30 | 30 | 30 | 30 | 30 | 30 | – | –
CC[C@H](C)[C@H](NC(=O)[C@H](Cc1c[nH]c2ccccc12)NC(=O)[C@H](Cc1c[nH]c2ccccc12)NC(=O)[C@H](CCCN=C(N)N)NC(=O)[C@H](CCCCN)NC(=O)[C@H](Cc1c[nH]c2ccccc12)NC(=O)[C@H](CC(C)C)NC(=O)[C@@H](N)CCCN=C(N)N)C(=O)N[C@@H](CCCN=C(N)N)C(=O)O [RLWKRWWIR] | – | – | – | – | – | – | – | – | – | – | – | 91.4 (≈ 128 µg/mL) | MIC [20]: ≥ 45.7 µM; MIC [21]: ≥ 91.4 µM; MIC [22]: ≥ 45.7 µM; MIC [23]: ≥ 91.4 µM; MIC [24]: ≥ 45.7 µM; MIC [25]: ≥ 91.4 µM; MIC (Candida albicans C627): 11.4 µM (≈ 16 µg/mL)
NCCCC[C@H](N)C(=O)N[C@@H](Cc1c[nH]c2ccccc12)C(=O)N[C@@H](Cc1c[nH]c2ccccc12)C(=O)N[C@@H](CCCN=C(N)N)C(=O)N[C@@H](Cc1c[nH]c2ccccc12)C(=O)N[C@@H](CCCN=C(N)N)C(=O)N[C@@H](CCCN=C(N)N)C(=O)N[C@@H](Cc1c[nH]c2ccccc12)C(=O)N[C@@H](Cc1c[nH]c2ccccc12)C(=O)O [KWWRWRRWW] | – | – | – | – | – | – | – | – | – | – | – | 5.18 (≈ 8 µg/mL) | MIC [20]: 5.18 µM (≈ 8 µg/mL); MIC [21]: 20.7 µM (≈ 32 µg/mL); MIC [22]: 20.7 µM (≈ 32 µg/mL); MIC [23]: ≥ 82.8 µM; MIC [24]: ≥ 82.8 µM; MIC [25]: ≥ 41.4 µM; MIC (Candida albicans C627): 5.18 µM (≈ 8 µg/mL)
CC[C@H](C)[C@H](N)C(=O)N[C@@H](CC(C)C)C(=O)NCC(=O)N[C@@H](CCCCN)C(=O)N[C@H](C(=O)N[C@@H](Cc1c[nH]c2ccccc12)C(=O)N[C@@H](CCCCN)C(=O)NCC(=O)N[C@@H](CCCCN)C(=O)N[C@@H](CCCCN)C(=O)N[C@@H](CO)C(=O)N[C@@H](CC(C)C)C(=O)N[C@@H](Cc1ccccc1)C(N)=O)[C@@H](C)CC [ILGKIWKGKKSLF] | – | – | – | – | – | – | – | – | – | – | – | 1 (≈ 1.52 µg/mL) | MIC [17]: 1 µM (≈ 1.52 µg/mL); MIC [9]: 2 µM (≈ 3.03 µg/mL); MIC [18]: 1 µM (≈ 1.52 µg/mL); MIC [27]: 2 µM (≈ 3.03 µg/mL)
CC(C)C[C@H](NC(=O)[C@H](Cc1ccccc1)NC(=O)[C@H](CC(C)C)NC(=O)[C@H](CS)NC(=O)[C@H](Cc1cnc[nH]1)NC(=O)[C@@H](NC(=O)[C@H](C)N)[C@@H](C)O)C(=O)N[C@@H](CCCCN)C(=O)N[C@@H](CCCCN)C(=O)N[C@@H](CCCN=C(N)N)C(N)=O [ATHCLFLKKR] | 30 | 15 | 15 | 15 | 7.5 | 15 | 30 | 30 | 15 | 30 | 15 | – | –
